Measurements as given in the supplement of paper PMC10307832.

Key:
Experiment in all cases: relative viability (nuclei count vs DMSO), 5 days (fraction); higher = more cells survive
Erlotinib + Palbociclib = compound: C#Cc1cccc(Nc2ncnc3cc(OCCOC)c(OCCOC)cc23)c1 [Erlotinib] + CC(=O)c1c(C)c2cnc(Nc3ccc(N4CCNCC4)cn3)nc2n(C2CCCC2)c1=O [Palbociclib] (partner 0.5 µM)
Procedure, shortened: (§1)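 Lung cancer cell lines in 1536-well plates got either a single drug or a fixed anchor-drug dose together with five library-drug doses (not always all listed) in √10 steps, by pin tool, on the day after seeding. Nuclei were counted after 5 days, and relative viability is the treated-to-vehicle ratio of nuclei counts. Values are medians of duplicate plates.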

Erlotinib + Lapatinib = compound: C#Cc1cccc(Nc2ncnc3cc(OCCOC)c(OCCOC)cc23)c1 [Erlotinib] + CS(=O)(=O)CCNCc1ccc(-c2ccc3ncnc(Nc4ccc(OCc5cccc(F)c5)c(Cl)c4)c3c2)o1 [Lapatinib] (partner 2 µM)
Procedure, shortened: as §1

Erlotinib + Pictilisib = compound: C#Cc1cccc(Nc2ncnc3cc(OCCOC)c(OCCOC)cc23)c1 [Erlotinib] + CS(=O)(=O)N1CCN(Cc2cc3nc(-c4cccc5[nH]ncc45)nc(N4CCOCC4)c3s2)CC1 [Pictilisib] (partner 1 µM)
Procedure, shortened: as §1

Erlotinib + Olaparib = compound: C#Cc1cccc(Nc2ncnc3cc(OCCOC)c(OCCOC)cc23)c1 [Erlotinib] + O=C(c1cc(Cc2n[nH]c(=O)c3ccccc23)ccc1F)N1CCN(C(=O)C2CC2)CC1 [Olaparib] (partner 8 µM)
Procedure, shortened: as §1

AT9283 + Lapatinib = compound: O=C(Nc1c[nH]nc1-c1nc2ccc(CN3CCOCC3)cc2[nH]1)NC1CC1 [AT9283] + CS(=O)(=O)CCNCc1ccc(-c2ccc3ncnc(Nc4ccc(OCc5cccc(F)c5)c(Cl)c4)c3c2)o1 [Lapatinib] (partner 2 µM)
Procedure, shortened: as §1

| Cell Line | relative viability (Erlotinib + Palbociclib; first compound 0.02 µM) | relative viability (Erlotinib + Palbociclib; first compound 0.2 µM) | relative viability (Erlotinib + Palbociclib; first compound 0.6325 µM) | relative viability (Erlotinib + Palbociclib; first compound 2 µM) | relative viability (Erlotinib + Lapatinib; first compound 0.02 µM) | relative viability (Erlotinib + Lapatinib; first compound 0.2 µM) | relative viability (Erlotinib + Lapatinib; first compound 0.6325 µM) | relative viability (Erlotinib + Lapatinib; first compound 2 µM) | relative viability (Erlotinib + Pictilisib; first compound 0.02 µM) | relative viability (Erlotinib + Pictilisib; first compound 0.6325 µM) | relative viability (Erlotinib + Pictilisib; first compound 2 µM) | relative viability (Erlotinib + Olaparib; first compound 0.02 µM) | relative viability (Erlotinib + Olaparib; first compound 0.2 µM) | relative viability (Erlotinib + Olaparib; first compound 0.6325 µM) | relative viability (Erlotinib + Olaparib; first compound 2 µM) | relative viability (AT9283 + Lapatinib; first compound 0.003 µM) | relative viability (AT9283 + Lapatinib; first compound 0.03 µM) | relative viability (AT9283 + Lapatinib; first compound 0.09487 µM) | relative viability (AT9283 + Lapatinib; first compound 0.3 µM) | relative viability (Erlotinib + Pictilisib; first compound 0.2 µM) |
| --- | --- | --- | --- | --- | --- | --- | --- | --- | --- | --- | --- | --- | --- | --- | --- | --- | --- | --- | --- | --- |
| HCC-15 | 0.727 | 0.672 | 0.751 | 0.71 | 0.939 | 0.852 | 0.93 | 0.785 | 0.758 | 0.735 | 0.659 | 0.701 | 0.753 | 0.715 | 0.626 | 0.745 | 0.37 | 0.159 | 0.142 | – |
| PC-3 [JPC-3] | 0.536 | 0.473 | 0.339 | 0.376 | 0.437 | 0.383 | 0.442 | 0.399 | 0.573 | 0.416 | 0.295 | 1.05 | 0.559 | 0.466 | 0.434 | 0.444 | 0.436 | 0.422 | 0.304 | 0.395 |
| LK-2 | 0.579 | 0.589 | 0.712 | 0.743 | 0.971 | 0.875 | 1.17 | 0.844 | 0.649 | 0.735 | 0.599 | 0.914 | 0.706 | 0.804 | 0.611 | 0.788 | 0.26 | 0.198 | 0.181 | 0.519 |
| LOU-NH91 | 0.564 | 0.546 | 0.624 | 0.542 | 0.735 | 0.723 | 0.786 | 0.734 | 0.471 | 0.465 | 0.475 | 0.733 | 0.619 | 0.725 | 0.624 | 0.688 | 0.646 | 0.566 | 0.419 | 0.505 |
| NCI-H3122 | 0.195 | 0.215 | 0.159 | 0.195 | 1.08 | 1.03 | 0.982 | 1.01 | 0.576 | – | 0.598 | 0.618 | 0.652 | 0.631 | 0.618 | 1.07 | 0.964 | 0.446 | 0.328 | 0.614 |
| NCI-H647 | 0.417 | 0.307 | 0.562 | 0.316 | 1.24 | 1.11 | 1.09 | 0.942 | 0.445 | 0.499 | 0.46 | 0.556 | 0.541 | 0.594 | 0.243 | 1.06 | 0.124 | 0.123 | 0.0895 | 0.359 |
| EMC-BAC-2 | 0.529 | 0.501 | 0.553 | 0.505 | 0.934 | 0.828 | – | 0.822 | 0.543 | 0.542 | 0.47 | 0.569 | 0.547 | 0.492 | 0.46 | 0.875 | 0.599 | 0.229 | 0.225 | 0.535 |
| SK-LU-1 | 0.372 | 0.432 | 0.376 | 0.357 | 0.974 | 0.933 | 0.995 | 0.869 | 0.695 | 0.598 | 0.58 | 0.536 | 0.551 | 0.403 | 0.455 | 0.933 | 0.371 | 0.274 | 0.272 | 0.665 |
| HARA | 0.233 | 0.224 | 0.241 | 0.188 | 0.857 | 0.902 | 0.976 | 0.688 | 0.555 | 0.311 | 0.155 | 1.1 | 0.591 | 1.02 | 0.354 | 0.767 | 0.504 | 0.0806 | 0.0666 | 0.46 |
| PC-14 | 0.173 | 0.0873 | 0.0953 | 0.0635 | 0.276 | 0.289 | 0.307 | 0.279 | 0.221 | 0.0876 | 0.0584 | 0.272 | 0.168 | 0.135 | 0.106 | 0.328 | 0.393 | 0.203 | 0.102 | 0.0861 |
| NCI-H1915 | 0.522 | 0.526 | 0.599 | 0.502 | 1.01 | 0.987 | – | 0.992 | – | 1.07 | 0.948 | 0.25 | 0.264 | 0.25 | 0.222 | 0.885 | 0.931 | 0.477 | 0.217 | – |
| COR-L23 | 0.292 | 0.287 | 0.383 | 0.29 | 0.944 | 0.979 | 1.16 | 0.96 | 0.898 | 1.04 | 0.656 | 0.38 | 0.309 | 0.442 | 0.308 | 1 | 0.12 | 0.129 | 0.172 | 0.692 |
| NCI-H838 | 0.225 | 0.205 | 0.225 | 0.211 | 1.21 | 0.759 | 1.26 | 0.853 | 0.471 | 0.503 | 0.477 | 0.823 | 0.766 | 0.859 | 0.726 | 0.98 | 0.225 | 0.18 | 0.182 | 0.454 |
| BEN | 0.497 | 0.442 | 0.507 | 0.483 | 0.689 | 0.802 | 1.03 | 0.735 | 0.466 | 0.683 | 0.514 | 1.3 | 1.06 | 1.14 | 1.03 | 0.582 | 0.546 | 0.158 | 0.243 | 0.483 |
| SW 1573 | 0.38 | 0.362 | 0.37 | 0.355 | 1.3 | 1.05 | – | 1.17 | 0.525 | 0.62 | 0.419 | 0.502 | 0.494 | 0.558 | 0.364 | 1.15 | 0.494 | 0.188 | 0.244 | 0.482 |
| NCI-H1975 | 0.539 | 0.611 | 0.639 | 0.472 | – | 0.885 | 0.908 | – | 0.287 | 0.307 | 0.255 | 0.818 | 0.712 | 0.888 | 0.695 | 0.891 | 0.225 | 0.208 | 0.196 | 0.253 |
